Tests used:
endopeptidase 24-15 = endopeptidase 24-15 (Rattus norvegicus, UniProt P24155); test: Inhibition of neurotensin degradation by purified endopeptidase 24-15 (HPLC), inhibition constant Ki; details: for SELECTIVITY (ratio Ki24-16 /Ki24-15): selectivity relative to endopeptidase 24-16; for Ki expected for one of the diastereoisomers of the mixture: extrapolated from Ki of the mixture of 4 diastereoisomers; for affinity difference / power factor relative to Cpp-Ala-Pro-Phe-pAb: for the expected single diastereoisomer versus known inhibitor (Ki 7 nM)
Sequence of endopeptidase 24-15 (P24155 whole entry): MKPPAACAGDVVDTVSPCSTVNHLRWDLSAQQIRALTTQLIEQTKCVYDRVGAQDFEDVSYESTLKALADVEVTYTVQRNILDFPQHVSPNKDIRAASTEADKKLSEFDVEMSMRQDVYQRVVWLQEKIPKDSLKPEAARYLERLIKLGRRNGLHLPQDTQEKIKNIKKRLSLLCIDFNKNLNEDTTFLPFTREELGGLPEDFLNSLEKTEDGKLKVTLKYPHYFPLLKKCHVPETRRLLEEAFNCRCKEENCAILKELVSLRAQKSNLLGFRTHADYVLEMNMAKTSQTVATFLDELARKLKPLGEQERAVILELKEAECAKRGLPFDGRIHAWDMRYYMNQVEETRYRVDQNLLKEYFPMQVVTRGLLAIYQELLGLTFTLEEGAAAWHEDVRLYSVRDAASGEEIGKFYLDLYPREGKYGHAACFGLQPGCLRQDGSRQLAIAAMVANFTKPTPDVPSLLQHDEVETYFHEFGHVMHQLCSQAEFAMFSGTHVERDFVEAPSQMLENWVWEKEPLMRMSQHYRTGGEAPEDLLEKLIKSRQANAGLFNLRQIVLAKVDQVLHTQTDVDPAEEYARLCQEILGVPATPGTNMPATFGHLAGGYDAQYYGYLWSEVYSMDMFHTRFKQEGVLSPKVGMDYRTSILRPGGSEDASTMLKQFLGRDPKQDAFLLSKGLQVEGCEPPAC
Method: Incubation takes place for 1 hour at 37° C. of 2 nmole (20 μmole/l) of neurotensin, which is a known endopeptidase 24-15 substrate, with 7 μg of purified endopeptidase 24-15 in a final volume of 100 μl of tris-HCl buffer, 50 nM, pH 7.5, in the absence of an inhibitor (control) or in the presence of the peptide tested at concentrations from 10^-11 to 10^-7 mole/l. After 1 hour incubation analysis takes place of the solutions by HPLC. On the basis of this analysis the inhibition constant Ki of the tested peptide is determined.

endopeptidase 24-16 = endopeptidase 24-16 (Homo sapiens, UniProt Q9BYT8); test: Inhibition of neurotensin degradation by purified endopeptidase 24-16 (HPLC), inhibition constant Ki; assay type: biochemical; details: neurotensin 20 μmole/l, 1 hour at 30° C., tris-HCl pH 7.5
Sequence of endopeptidase 24-16 (Q9BYT8 38-704): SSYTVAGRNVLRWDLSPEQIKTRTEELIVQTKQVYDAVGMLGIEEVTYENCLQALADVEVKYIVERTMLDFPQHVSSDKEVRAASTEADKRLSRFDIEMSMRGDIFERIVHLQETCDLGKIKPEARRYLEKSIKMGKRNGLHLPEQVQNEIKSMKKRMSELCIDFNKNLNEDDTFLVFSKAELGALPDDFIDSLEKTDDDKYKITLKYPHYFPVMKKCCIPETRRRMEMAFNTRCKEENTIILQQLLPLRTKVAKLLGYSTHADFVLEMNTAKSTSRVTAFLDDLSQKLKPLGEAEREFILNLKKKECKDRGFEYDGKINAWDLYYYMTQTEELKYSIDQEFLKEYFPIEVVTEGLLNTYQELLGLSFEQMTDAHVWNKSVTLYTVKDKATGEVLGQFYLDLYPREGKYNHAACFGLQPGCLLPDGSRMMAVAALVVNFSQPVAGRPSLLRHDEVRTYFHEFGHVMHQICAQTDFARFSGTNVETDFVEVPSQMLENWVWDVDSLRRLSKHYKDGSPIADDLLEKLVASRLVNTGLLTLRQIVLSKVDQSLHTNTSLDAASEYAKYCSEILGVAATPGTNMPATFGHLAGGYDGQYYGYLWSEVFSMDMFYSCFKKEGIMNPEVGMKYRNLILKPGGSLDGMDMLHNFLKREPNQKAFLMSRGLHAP
Method: This example studies the inhibiting effect of the peptides of the invention with respect to endopeptidase 24-16.
To this end, incubation takes place for 1 hour at 30° C. of 2 nmole (20 μmole/l) of neurotensin, which is a known endopeptidase 24-16 substrate with 8 μg of endopeptidase 24-16 purified in a final volume of 100 μl of tris-HCl buffer, 50 mM, pH 7.5, in the absence of peptide (control) or in the presence of the peptide tested at concentrations from 10^-11 to 10^-7 mole/l. After 1 hour of incubation analysis takes place of the solutions by HPLC and the inhibition constant Ki of the tested peptide is determined.

CC(CP(=O)(O)C(Cc1ccccc1)NC(=O)OCc1ccccc1)C(=O)N[C@@H](CCCCN)C(=O)N[C@H](C(=O)O)C(C)C (mixture of isomers) [compound 30, Z--Phe .PSI. (PO2 CH2)Ala--Lys--Val]
Ki (endopeptidase 24-15): 2.6 nM

CC(CP(=O)(O)C(Cc1ccccc1)NC(=O)OCc1ccccc1)C(=O)N[C@@H](CCCCN)C(=O)N[C@@H](Cc1c[nH]c2ccccc12)C(=O)O (mixture of isomers) [compound 34, Z--Phe .PSI. (PO2 CH2)Ala--Lys--Trp]
Ki (endopeptidase 24-15): 5.78 nM

CC[C@H](C)[C@H](NC(=O)[C@H](CCCNC(=N)N)NC(=O)CCP(=O)(O)C(Cc1ccccc1)NC(=O)OCc1ccccc1)C(=O)O (mixture of isomers) [compound 9, Z--Phe .PSI. (PO2 CH2)Gly--Arg--Ile]
Ki (endopeptidase 24-16): 589 nM | Ki (endopeptidase 24-15): 9.6 nM | SELECTIVITY (ratio Ki24-16 /Ki24-15) (endopeptidase 24-15): 61

CCCC[C@H](NC(=O)[C@H](CCCCN)NC(=O)C(C)CP(=O)(O)C(Cc1ccccc1)NC(=O)OCc1ccccc1)C(=O)O (mixture of isomers) [compound 23, Z--Phe .PSI. (PO2 CH2)Ala--Lys--Nle]
Ki (endopeptidase 24-16): 162 nM | Ki (endopeptidase 24-15): 0.63 nM | SELECTIVITY (ratio Ki24-16 /Ki24-15) (endopeptidase 24-15): 257

CC(CP(=O)(O)C(Cc1ccccc1)NC(=O)OCc1ccccc1)C(=O)N[C@@H](CCCCN)C(=O)NCC(=O)O (mixture of isomers) [compound 33, Z--Phe .PSI. (PO2 CH2)Ala--Lys--Gly]
Ki (endopeptidase 24-15): 5.1 nM

CC(CP(=O)(O)C(Cc1ccccc1)NC(=O)OCc1ccccc1)C(=O)N[C@@H](CCCCN)C(=O)N1CCC[C@H]1C(=O)O (mixture of isomers) [compound 41, Z--Phe .PSI. (PO2 CH2)Ala--Lys--Pro]
Ki (endopeptidase 24-15): 1030 nM

CC(CP(=O)(O)C(Cc1ccccc1)NC(=O)OCc1ccccc1)C(=O)N[C@@H](CCCCN)C(=O)N[C@H](C(=O)O)[C@@H](C)O (mixture of isomers) [compound 36, Z--Phe .PSI. (PO2 CH2)Ala--Lys--Thr]
Ki (endopeptidase 24-15): 10.1 nM

CC(C)[C@H](NC(=O)[C@H](CCCNC(=N)N)NC(=O)CCP(=O)(O)C(Cc1ccccc1)NC(=O)OCc1ccccc1)C(=O)O (mixture of isomers) [compound 8, Z--Phe .PSI. (PO2 CH2)Gly--Arg--Val]
Ki (endopeptidase 24-16): 1130 nM | Ki (endopeptidase 24-15): 9.3 nM | SELECTIVITY (ratio Ki24-16 /Ki24-15) (endopeptidase 24-15): 121

CC(CP(=O)(O)C(Cc1ccccc1)NC(=O)OCc1ccccc1)C(=O)N[C@@H](CCCCN)C(=O)N[C@@H](C)C(=O)O (mixture of isomers) [compound 24, Z--Phe .PSI. (PO2 CH2)Ala--Lys--Ala]
Ki (endopeptidase 24-16): 436 nM | Ki (endopeptidase 24-15): 0.83 nM | SELECTIVITY (ratio Ki24-16 /Ki24-15) (endopeptidase 24-15): 525

CC(C)CC(CP(=O)(O)C(Cc1ccccc1)NC(=O)OCc1ccccc1)C(=O)N[C@@H](CCCNC(=N)N)C(=O)N[C@@H](Cc1ccccc1)C(=O)O (mixture of isomers) [compound 44, Z--Phe .PSI. (PO2 CH2)Leu--Arg--Phe]
Ki (endopeptidase 24-16): 2290 nM | Ki (endopeptidase 24-15): 14 nM | SELECTIVITY (ratio Ki24-16 /Ki24-15) (endopeptidase 24-15): 164

N=C(N)NCCC[C@H](NC(=O)CCP(=O)(O)C(Cc1ccccc1)NC(=O)OCc1ccccc1)C(=O)N[C@@H](Cc1c[nH]cn1)C(=O)O (mixture of isomers) [compound 14, Z--Phe .PSI. (PO2 CH2)Gly--Arg--His]
Ki (endopeptidase 24-16): 3010 nM | Ki (endopeptidase 24-15): 23.2 nM | SELECTIVITY (ratio Ki24-16 /Ki24-15) (endopeptidase 24-15): 129

CC(C)C[C@H](NC(=O)[C@H](CCCNC(=N)N)NC(=O)CCP(=O)(O)C(Cc1ccccc1)NC(=O)OCc1ccccc1)C(=O)O (mixture of isomers) [compound 6, Z--Phe .PSI. (PO2 CH2)Gly--Arg--Leu]
Ki (endopeptidase 24-16): 846 nM | Ki (endopeptidase 24-15): 5 nM | SELECTIVITY (ratio Ki24-16 /Ki24-15) (endopeptidase 24-15): 169

N=C(N)NCCC[C@H](NC(=O)CCP(=O)(O)C(Cc1ccccc1)NC(=O)OCc1ccccc1)C(=O)NCC(=O)O (mixture of isomers) [compound 11, Z--Phe .PSI. (PO2 CH2)Gly--Arg--Gly]
Ki (endopeptidase 24-16): 1660 nM | Ki (endopeptidase 24-15): 13.8 nM | SELECTIVITY (ratio Ki24-16 /Ki24-15) (endopeptidase 24-15): 120

N=C(N)NCCC[C@H](NC(=O)CCP(=O)(O)C(Cc1ccccc1)NC(=O)OCc1ccccc1)C(=O)N[C@@H](Cc1ccccc1)C(=O)O (mixture of isomers) [compound 4, Z--Phe .PSI. (PO2 CH2)Gly--Arg--Phe]
Ki (endopeptidase 24-16): 1100 nM | Ki (endopeptidase 24-15): 2.7 nM | SELECTIVITY (ratio Ki24-16 /Ki24-15) (endopeptidase 24-15): 409

CC(CP(=O)(O)C(Cc1ccccc1)NC(=O)OCc1ccccc1)C(=O)N[C@@H](CCCCN)C(=O)N[C@@H](Cc1c[nH]cn1)C(=O)O (mixture of isomers) [compound 35, Z--Phe .PSI. (PO2 CH2)Ala--Lys--His]
Ki (endopeptidase 24-15): 7.13 nM

CSCC[C@H](NC(=O)[C@H](CCCNC(=N)N)NC(=O)C(C)CP(=O)(O)C(Cc1ccccc1)NC(=O)OCc1ccccc1)C(=O)O (mixture of isomers) [compound 42, Z--Phe .PSI. (PO2 CH2)Ala--Arg--Met]
Ki (endopeptidase 24-16): 88 nM | Ki (endopeptidase 24-15): 0.067 nM | Ki expected for one of the diastereoisomers of the mixture (endopeptidase 24-15): approximately 15 pM | affinity difference / power factor relative to Cpp-Ala-Pro-Phe-pAb (endopeptidase 24-15): 440 | SELECTIVITY (ratio Ki24-16 /Ki24-15) (endopeptidase 24-15): 1312

CC(CP(=O)(O)C(Cc1ccccc1)NC(=O)OCc1ccccc1)C(=O)N[C@@H](CCCNC(=N)N)C(=O)N[C@@H](Cc1ccccc1)C(=O)O (mixture of isomers) [compound 43, Z--Phe .PSI. (PO2 CH2)Ala--Arg--Phe]
Ki (endopeptidase 24-16): 527 nM | Ki (endopeptidase 24-15): 0.158 nM | Ki expected for one of the diastereoisomers of the mixture (endopeptidase 24-15): approximately 40 pM | affinity difference / power factor relative to Cpp-Ala-Pro-Phe-pAb (endopeptidase 24-15): approximately 175 | SELECTIVITY (ratio Ki24-16 /Ki24-15) (endopeptidase 24-15): 3335

CC(CP(=O)(O)C(Cc1ccccc1)NC(=O)OCc1ccccc1)C(=O)N[C@@H](CCCCN)C(=O)N[C@@H](CO)C(=O)O (mixture of isomers) [compound 37, Z--Phe .PSI. (PO2 CH2)Ala--Lys--Ser]
Ki (endopeptidase 24-15): 11.9 nM

N=C(N)NCCC[C@H](NC(=O)CCP(=O)(O)C(Cc1ccccc1)NC(=O)OCc1ccccc1)C(=O)N[C@@H](CC(=O)O)C(=O)O (mixture of isomers) [compound 20, Z--Phe .PSI. (PO2 CH2)Gly--Arg--Asp]
Ki (endopeptidase 24-16): 20400 nM | Ki (endopeptidase 24-15): 352 nM | SELECTIVITY (ratio Ki24-16 /Ki24-15) (endopeptidase 24-15): 58

N=C(N)NCCC[C@H](NC(=O)CCP(=O)(O)C(Cc1ccccc1)NC(=O)OCc1ccccc1)C(=O)N[C@@H](Cc1c[nH]c2ccccc12)C(=O)O (mixture of isomers) [compound 10, Z--Phe .PSI. (PO2 CH2)Gly--Arg--Trp]
Ki (endopeptidase 24-16): 2660 nM | Ki (endopeptidase 24-15): 13.1 nM | SELECTIVITY (ratio Ki24-16 /Ki24-15) (endopeptidase 24-15): 203

N=C(N)NCCC[C@H](NC(=O)CCP(=O)(O)C(Cc1ccccc1)NC(=O)OCc1ccccc1)C(=O)N[C@@H](CCC(N)=O)C(=O)O (mixture of isomers) [compound 7, Z--Phe .PSI. (PO2 CH2)Gly--Arg--Gln]
Ki (endopeptidase 24-16): 690 nM | Ki (endopeptidase 24-15): 6.1 nM | SELECTIVITY (ratio Ki24-16 /Ki24-15) (endopeptidase 24-15): 113

N=C(N)NCCC[C@H](NC(=O)CCP(=O)(O)C(Cc1ccccc1)NC(=O)OCc1ccccc1)C(=O)N1CCC[C@H]1C(=O)O (mixture of isomers) [compound 21, Z--Phe .PSI. (PO2 CH2)Gly--Arg--Pro]
Ki (endopeptidase 24-16): 36700 nM | Ki (endopeptidase 24-15): 3520 nM | SELECTIVITY (ratio Ki24-16 /Ki24-15) (endopeptidase 24-15): 10

N=C(N)NCCC[C@H](NC(=O)CCP(=O)(O)C(Cc1ccccc1)NC(=O)OCc1ccccc1)C(=O)N[C@@H](Cc1ccc(O)cc1)C(=O)O (mixture of isomers) [compound 5, Z--Phe .PSI. (PO2 CH2)Gly--Arg--Tyr]
Ki (endopeptidase 24-16): 596 nM | Ki (endopeptidase 24-15): 3.6 nM | SELECTIVITY (ratio Ki24-16 /Ki24-15) (endopeptidase 24-15): 165

N=C(N)NCCC[C@H](NC(=O)CCP(=O)(O)C(Cc1ccccc1)NC(=O)OCc1ccccc1)C(=O)N[C@@H](CCC(=O)O)C(=O)O (mixture of isomers) [compound 19, Z--Phe .PSI. (PO2 CH2)Gly--Arg--Glu]
Ki (endopeptidase 24-16): 8150 nM | Ki (endopeptidase 24-15): 163 nM | SELECTIVITY (ratio Ki24-16 /Ki24-15) (endopeptidase 24-15): 50

CC(CP(=O)(O)C(Cc1ccccc1)NC(=O)OCc1ccccc1)C(=O)N[C@@H](CCCCN)C(=O)N[C@@H](Cc1ccccc1)C(=O)O (mixture of isomers) [compound 25, Z--Phe .PSI. (PO2 CH2)Ala--Lys--Phe]
Ki (endopeptidase 24-16): 1650 nM | Ki (endopeptidase 24-15): 1 nM | SELECTIVITY (ratio Ki24-16 /Ki24-15) (endopeptidase 24-15): 1652

CC(CP(=O)(O)C(Cc1ccccc1)NC(=O)OCc1ccccc1)C(=O)N[C@@H](CCCCN)C(=O)N[C@@H](CCCCN)C(=O)O (mixture of isomers) [compound 38, Z--Phe .PSI. (PO2 CH2)ASla--Lys--Lys]
Ki (endopeptidase 24-15): 26.9 nM

CC(CP(=O)(O)C(Cc1ccccc1)NC(=O)OCc1ccccc1)C(=O)N[C@@H](CCCCN)C(=O)N[C@@H](CC(=O)O)C(=O)O (mixture of isomers) [compound 40, Z--Phe .PSI. (PO2 CH2)Ala--Lys--Asp]
Ki (endopeptidase 24-15): 109 nM

CC(CP(=O)(O)C(Cc1ccccc1)NC(=O)OCc1ccccc1)C(=O)N[C@@H](CCCCN)C(=O)N[C@@H](CCC(N)=O)C(=O)O (mixture of isomers) [compound 28, Z--Phe .PSI. (PO2 CH2)Ala--Lys--Gln]
Ki (endopeptidase 24-15): 2.18 nM

CC(CP(=O)(O)C(Cc1ccccc1)NC(=O)OCc1ccccc1)C(=O)N[C@@H](CCCCN)C(=O)N[C@@H](CC(N)=O)C(=O)O (mixture of isomers) [compound 32, Z--Phe .PSI. (PO2 CH2)Ala--Lys--Asn]
Ki (endopeptidase 24-15): 4.9 nM

CC(CP(=O)(O)C(Cc1ccccc1)NC(=O)OCc1ccccc1)C(=O)N[C@@H](CCCCN)C(=O)N[C@@H](Cc1ccc(O)cc1)C(=O)O (mixture of isomers) [compound 29, Z--Phe .PSI. (PO2 CH2)Ala--Lys--Tyr]
Ki (endopeptidase 24-15): 2.3 nM

CC(CP(=O)(O)C(Cc1ccccc1)NC(=O)OCc1ccccc1)C(=O)N[C@@H](CCCCN)C(=O)N[C@@H](CCC(=O)O)C(=O)O (mixture of isomers) [compound 39, Z--Phe .PSI. (PO2 CH2)Ala--Lys--Glu]
Ki (endopeptidase 24-15): 53.5 nM

CC(CP(=O)(O)C(Cc1ccccc1)NC(=O)OCc1ccccc1)C(=O)N[C@@H](CCCCN)C(=O)N[C@@H](CCCNC(=N)N)C(=O)O (mixture of isomers) [compound 31, Z--Phe .PSI. (PO2 CH2)Ala--Lys--Arg]
Ki (endopeptidase 24-15): 3.17 nM
